ChEMBL document CHEMBL4196227, “Potential of PDE10A Inhibitors as Treatment for Schizophrenia and Other Neurological Disorders” (ACS Med Chem Lett, 2018)

Assays:
[1] = molecular target: cAMP and cAMP-inhibited cGMP 3',5'-cyclic phosphodiesterase 10A (Homo sapiens, UniProt Q9Y233); assay: Inhibition of recombinant PDE10A (unknown origin) using cAMP/cGMP as substrate incubated for 60 mins by HTRF assay
[2] = Clearance in rat liver microsomes at 0.5 uM preincubated for 5 mins followed by NADPH addition measured after 30 mins by MSMS analysis; type: ADME, microsome; conditions: read-out: CLH
[3] = Clearance in human liver microsomes at 0.5 uM preincubated for 5 mins followed by NADPH addition measured after 30 mins by MSMS analysis; type: ADME, microsome; conditions: read-out: CLH

Sequence of cAMP and cAMP-inhibited cGMP 3',5'-cyclic phosphodiesterase 10A (Q9Y233 whole entry): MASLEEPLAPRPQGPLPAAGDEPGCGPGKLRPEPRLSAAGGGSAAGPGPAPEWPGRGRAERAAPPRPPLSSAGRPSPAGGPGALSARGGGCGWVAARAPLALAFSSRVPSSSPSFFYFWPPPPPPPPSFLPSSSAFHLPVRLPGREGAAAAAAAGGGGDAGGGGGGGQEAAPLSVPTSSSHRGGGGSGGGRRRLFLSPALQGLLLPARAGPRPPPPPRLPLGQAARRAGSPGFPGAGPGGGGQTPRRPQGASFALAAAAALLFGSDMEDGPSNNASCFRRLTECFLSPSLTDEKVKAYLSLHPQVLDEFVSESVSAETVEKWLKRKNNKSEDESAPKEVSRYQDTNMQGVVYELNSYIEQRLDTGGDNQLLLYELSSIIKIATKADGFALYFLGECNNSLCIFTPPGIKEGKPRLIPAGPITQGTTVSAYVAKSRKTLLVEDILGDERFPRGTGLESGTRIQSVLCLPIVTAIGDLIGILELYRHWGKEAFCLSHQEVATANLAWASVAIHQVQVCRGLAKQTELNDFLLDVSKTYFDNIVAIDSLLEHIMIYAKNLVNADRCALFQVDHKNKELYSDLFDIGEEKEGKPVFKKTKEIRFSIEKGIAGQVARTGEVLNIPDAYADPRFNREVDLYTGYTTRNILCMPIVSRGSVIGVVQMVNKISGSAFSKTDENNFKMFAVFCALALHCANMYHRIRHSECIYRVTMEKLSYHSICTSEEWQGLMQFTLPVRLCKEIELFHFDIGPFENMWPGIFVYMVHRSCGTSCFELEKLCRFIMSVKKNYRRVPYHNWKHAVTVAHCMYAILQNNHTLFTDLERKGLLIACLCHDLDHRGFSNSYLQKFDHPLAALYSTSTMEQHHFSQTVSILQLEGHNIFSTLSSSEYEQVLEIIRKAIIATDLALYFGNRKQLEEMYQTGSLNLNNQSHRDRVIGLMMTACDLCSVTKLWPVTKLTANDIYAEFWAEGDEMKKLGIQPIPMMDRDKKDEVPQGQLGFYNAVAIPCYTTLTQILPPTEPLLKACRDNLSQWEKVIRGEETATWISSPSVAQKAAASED

Structure (SMILES) | IC50 [1] [nM] | microsomal CLint at 0.5 µM [2] [µL/min/mg] | microsomal CLint at 0.5 µM [3] [µL/min/mg]
Cn1cc(-c2ccncc2)c(-c2ccc(C#Cc3ccccn3)cc2)n1 | < 100 | < 100 | < 100
Cc1cccc(C#Cc2ccc(-c3nn(C)cc3-c3cn[nH]c3)cc2)n1 | 200 to 500 | < 100 | < 100
Cn1cc(-c2ccncc2)c(-c2ccc(C#Cc3nccn3C)cc2)n1 | < 100 | < 100 | < 100
Cn1cc(-c2ccncc2)c(-c2ccc(C#Cc3ccc4ccccc4n3)cc2)n1 | < 100 | < 100 | < 100
COc1cc(-c2nn(C)cc2-c2ccncc2)ccc1C#Cc1cccc(C)n1 | < 100 | 100 to 200 | < 100
Cn1cc(-c2ccncc2)c(-c2ccc(C#Cc3nccs3)cc2)n1 | 100 to 200 | < 100 | < 100
